Measured values published in the supplement of paper PMC10307832.

Tests used:
Assay in all cases: relative viability (nuclei count vs DMSO), 5 days (fraction); higher = more cells survive
[1] = compound: CCn1c(-c2nonc2N)nc2c(C#CC(C)(C)O)ncc(OC[C@H]3CCCNC3)c21 + CCNC(=O)c1noc(-c2cc(C(C)C)c(O)cc2O)c1-c1ccc(CN2CCOCC2)cc1 [Luminespib] (partner 0.01 µM)
Summary of the method: (§1)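 Relative viability divides the nuclei count in treated wells by that in vehicle wells. Lung cancer cell lines were seeded in 1536-well plates, dosed by pin tool the next day, and fixed and stained after 5 days in one step with final 0.05% Triton X-100, 1% formaldehyde and 1 ug/ml Hoechst. Dosing was a single drug or a fixed anchor-drug dose plus five library-drug doses (not always all listed) in √10 steps, and values are medians of duplicate plates imaged at 4×.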

BAM7 + Vorinostat = compound: CCOC1=CC=CC=C1N=NC2=C(NN(C2=O)C3=NC(=CS3)C4=CC=CC=C4)C [BAM7] + O=C(CCCCCCC(=O)Nc1ccccc1)NO [Vorinostat] (partner 1 µM)
Summary of the method: as §1

[2] = compound: CCn1c(-c2nonc2N)nc2c(C#CC(C)(C)O)ncc(OC[C@H]3CCCNC3)c21 + O=C(c1cc(Cc2n[nH]c(=O)c3ccccc23)ccc1F)N1CCN(C(=O)C2CC2)CC1 [Olaparib] (partner 8 µM)
Summary of the method: as §1

[3] = compound: CCn1c(-c2nonc2N)nc2c(C#CC(C)(C)O)ncc(OC[C@H]3CCCNC3)c21 + C[C@]1(O)C[C@@H](c2nc(-c3ccc4ccc(-c5ccccc5)nc4c3)c3c(N)nccn32)C1 [Linsitinib] (partner 1 µM)
Summary of the method: as §1

## NCI-H1975
[1]; first compound 0.01 µM
  relative viability: 0.214
[1]; first compound 0.03162 µM
  relative viability: 0.166
[1]; first compound 0.1 µM
  relative viability: 0.199
[1]; first compound 0.3162 µM
  relative viability: 0.247
[1]; first compound 1 µM
  relative viability: 0.304
BAM7 + Vorinostat; first compound 0.5 µM
  relative viability: 0.681
BAM7 + Vorinostat; first compound 5 µM
  relative viability: 0.713
BAM7 + Vorinostat; first compound 15.81 µM
  relative viability: 0.631
BAM7 + Vorinostat; first compound 50 µM
  relative viability: 0.616
[2]; first compound 0.01 µM
  relative viability: 0.745
[2]; first compound 0.03162 µM
  relative viability: 0.809
[2]; first compound 0.1 µM
  relative viability: 0.837
[2]; first compound 0.3162 µM
  relative viability: 0.784
[2]; first compound 1 µM
  relative viability: 0.757
[3]; first compound 0.01 µM
  relative viability: 0.887
[3]; first compound 0.03162 µM
  relative viability: 1.02
[3]; first compound 0.1 µM
  relative viability: 0.913
[3]; first compound 0.3162 µM
  relative viability: 0.791
[3]; first compound 1 µM
  relative viability: 0.86

## NCI-H1651
[1]; first compound 0.01 µM
  relative viability: 0.969
[1]; first compound 0.03162 µM
  relative viability: 0.875
[1]; first compound 0.1 µM
  relative viability: 0.811
[1]; first compound 0.3162 µM
  relative viability: 0.755
[1]; first compound 1 µM
  relative viability: 0.953
BAM7 + Vorinostat; first compound 0.5 µM
  relative viability: 0.543
BAM7 + Vorinostat; first compound 5 µM
  relative viability: 0.59
BAM7 + Vorinostat; first compound 15.81 µM
  relative viability: 0.661
BAM7 + Vorinostat; first compound 50 µM
  relative viability: 0.612
[2]; first compound 0.01 µM
  relative viability: 0.194
[2]; first compound 0.03162 µM
  relative viability: 0.189
[2]; first compound 0.1 µM
  relative viability: 0.197
[2]; first compound 0.3162 µM
  relative viability: 0.185
[2]; first compound 1 µM
  relative viability: 0.215
[3]; first compound 0.01 µM
  relative viability: 0.926
[3]; first compound 0.03162 µM
  relative viability: 0.941
[3]; first compound 0.1 µM
  relative viability: 0.919
[3]; first compound 0.3162 µM
  relative viability: 0.871
[3]; first compound 1 µM
  relative viability: 0.958

## NCI-H441
[1]; first compound 0.01 µM
  relative viability: 0.434
[1]; first compound 0.03162 µM
  relative viability: 0.312
[1]; first compound 0.1 µM
  relative viability: 0.349
[1]; first compound 0.3162 µM
  relative viability: 0.379
[1]; first compound 1 µM
  relative viability: 0.367
BAM7 + Vorinostat; first compound 0.5 µM
  relative viability: 1.1
BAM7 + Vorinostat; first compound 5 µM
  relative viability: 0.607
BAM7 + Vorinostat; first compound 15.81 µM
  relative viability: 0.762
BAM7 + Vorinostat; first compound 50 µM
  relative viability: 0.773
[2]; first compound 0.01 µM
  relative viability: 0.554
[2]; first compound 0.03162 µM
  relative viability: 0.726
[2]; first compound 0.1 µM
  relative viability: 0.529
[2]; first compound 0.3162 µM
  relative viability: 0.551
[2]; first compound 1 µM
  relative viability: 0.567
[3]; first compound 0.01 µM
  relative viability: 0.592
[3]; first compound 0.03162 µM
  relative viability: 0.556
[3]; first compound 0.1 µM
  relative viability: 0.67
[3]; first compound 0.3162 µM
  relative viability: 0.592
[3]; first compound 1 µM
  relative viability: 0.657

## LCLC-103H
[1]; first compound 0.01 µM
  relative viability: 0.936
[1]; first compound 0.03162 µM
  relative viability: 0.912
[1]; first compound 0.1 µM
  relative viability: 0.94
[1]; first compound 0.3162 µM
  relative viability: 0.735
[1]; first compound 1 µM
  relative viability: 0.863
BAM7 + Vorinostat; first compound 0.5 µM
  relative viability: 0.781
BAM7 + Vorinostat; first compound 5 µM
  relative viability: 0.804
BAM7 + Vorinostat; first compound 15.81 µM
  relative viability: 0.764
BAM7 + Vorinostat; first compound 50 µM
  relative viability: 0.781
[2]; first compound 0.01 µM
  relative viability: 0.705
[2]; first compound 0.03162 µM
  relative viability: 0.795
[2]; first compound 0.1 µM
  relative viability: 0.747
[2]; first compound 0.3162 µM
  relative viability: 0.766
[2]; first compound 1 µM
  relative viability: 0.795
[3]; first compound 0.01 µM
  relative viability: 1.13
[3]; first compound 0.03162 µM
  relative viability: 1.09
[3]; first compound 0.1 µM
  relative viability: 1.01
[3]; first compound 0.3162 µM
  relative viability: 1.04
[3]; first compound 1 µM
  relative viability: 1.15

## LCLC-97TM1
[1]; first compound 0.01 µM
  relative viability: 0.707
[1]; first compound 0.03162 µM
  relative viability: 0.914
[1]; first compound 0.1 µM
  relative viability: 0.609
[1]; first compound 0.3162 µM
  relative viability: 0.658
[1]; first compound 1 µM
  relative viability: 0.741
BAM7 + Vorinostat; first compound 0.5 µM
  relative viability: 0.941
BAM7 + Vorinostat; first compound 5 µM
  relative viability: 0.878
BAM7 + Vorinostat; first compound 50 µM
  relative viability: 0.763
[2]; first compound 0.01 µM
  relative viability: 0.413
[2]; first compound 0.03162 µM
  relative viability: 0.509
[2]; first compound 0.1 µM
  relative viability: 0.347
[2]; first compound 0.3162 µM
  relative viability: 0.391
[2]; first compound 1 µM
  relative viability: 0.321
[3]; first compound 0.03162 µM
  relative viability: 0.159
[3]; first compound 0.1 µM
  relative viability: 0.169
[3]; first compound 0.3162 µM
  relative viability: 0.229
[3]; first compound 1 µM
  relative viability: 0.21

## NCI-H727
[1]; first compound 0.01 µM
  relative viability: 0.324
[1]; first compound 0.03162 µM
  relative viability: 0.621
[1]; first compound 0.1 µM
  relative viability: 0.311
[1]; first compound 0.3162 µM
  relative viability: 0.313
[1]; first compound 1 µM
  relative viability: 0.389
BAM7 + Vorinostat; first compound 0.5 µM
  relative viability: 1.42
BAM7 + Vorinostat; first compound 5 µM
  relative viability: 1.09
BAM7 + Vorinostat; first compound 15.81 µM
  relative viability: 0.942
BAM7 + Vorinostat; first compound 50 µM
  relative viability: 0.839
[2]; first compound 0.01 µM
  relative viability: 0.801
[2]; first compound 0.03162 µM
  relative viability: 0.668
[2]; first compound 0.1 µM
  relative viability: 0.751
[2]; first compound 0.3162 µM
  relative viability: 0.805
[2]; first compound 1 µM
  relative viability: 0.869
[3]; first compound 0.01 µM
  relative viability: 0.271
[3]; first compound 0.03162 µM
  relative viability: 0.313
[3]; first compound 0.1 µM
  relative viability: 0.257
[3]; first compound 0.3162 µM
  relative viability: 0.309
[3]; first compound 1 µM
  relative viability: 0.288

## NCI-H1355
[1]; first compound 0.01 µM
  relative viability: 0.716
[1]; first compound 0.03162 µM
  relative viability: 0.688
[1]; first compound 0.1 µM
  relative viability: 0.746
[1]; first compound 0.3162 µM
  relative viability: 0.695
[1]; first compound 1 µM
  relative viability: 0.693
BAM7 + Vorinostat; first compound 0.5 µM
  relative viability: 0.617
BAM7 + Vorinostat; first compound 5 µM
  relative viability: 0.553
BAM7 + Vorinostat; first compound 15.81 µM
  relative viability: 0.544
BAM7 + Vorinostat; first compound 50 µM
  relative viability: 0.566
[2]; first compound 0.01 µM
  relative viability: 0.689
[2]; first compound 0.03162 µM
  relative viability: 0.774
[2]; first compound 0.1 µM
  relative viability: 0.734
[2]; first compound 0.3162 µM
  relative viability: 0.709
[2]; first compound 1 µM
  relative viability: 0.735
[3]; first compound 0.01 µM
  relative viability: 0.899
[3]; first compound 0.03162 µM
  relative viability: 0.804
[3]; first compound 0.1 µM
  relative viability: 0.877
[3]; first compound 0.3162 µM
  relative viability: 0.685
[3]; first compound 1 µM
  relative viability: 0.869

## HOP-62
[1]; first compound 0.01 µM
  relative viability: 0.903
[1]; first compound 0.03162 µM
  relative viability: 0.878
[1]; first compound 0.1 µM
  relative viability: 0.913
[1]; first compound 0.3162 µM
  relative viability: 0.876
[1]; first compound 1 µM
  relative viability: 0.967
BAM7 + Vorinostat; first compound 0.5 µM
  relative viability: 0.682
BAM7 + Vorinostat; first compound 5 µM
  relative viability: 0.661
BAM7 + Vorinostat; first compound 15.81 µM
  relative viability: 0.591
BAM7 + Vorinostat; first compound 50 µM
  relative viability: 0.694
[2]; first compound 0.01 µM
  relative viability: 0.396
[2]; first compound 0.03162 µM
  relative viability: 0.419
[2]; first compound 0.1 µM
  relative viability: 0.445
[2]; first compound 0.3162 µM
  relative viability: 0.521
[2]; first compound 1 µM
  relative viability: 0.603
[3]; first compound 0.01 µM
  relative viability: 1.07
[3]; first compound 0.03162 µM
  relative viability: 0.942
[3]; first compound 0.1 µM
  relative viability: 1.03
[3]; first compound 0.3162 µM
  relative viability: 0.921
[3]; first compound 1 µM
  relative viability: 0.878

## NCI-H2085
[1]; first compound 0.01 µM
  relative viability: 0.417
[1]; first compound 0.03162 µM
  relative viability: 0.382
[1]; first compound 0.1 µM
  relative viability: 0.492
[1]; first compound 0.3162 µM
  relative viability: 0.42
[1]; first compound 1 µM
  relative viability: 0.463
BAM7 + Vorinostat; first compound 0.5 µM
  relative viability: 0.824
BAM7 + Vorinostat; first compound 5 µM
  relative viability: 0.654
BAM7 + Vorinostat; first compound 15.81 µM
  relative viability: 0.74
BAM7 + Vorinostat; first compound 50 µM
  relative viability: 0.822
[2]; first compound 0.01 µM
  relative viability: 0.758
[2]; first compound 0.03162 µM
  relative viability: 0.807
[2]; first compound 0.1 µM
  relative viability: 0.795
[2]; first compound 0.3162 µM
  relative viability: 0.755
[2]; first compound 1 µM
  relative viability: 0.725
[3]; first compound 0.01 µM
  relative viability: 0.843
[3]; first compound 0.03162 µM
  relative viability: 0.91
[3]; first compound 0.1 µM
  relative viability: 0.804
[3]; first compound 0.3162 µM
  relative viability: 0.879
[3]; first compound 1 µM
  relative viability: 0.921
